Patent publication EP0249301A1, “Pyrido[2,3-b]indoles” (BEECHAM GROUP PLC, priority 1986, dated 1987)

System: Rats
Experiment: Geller-Seifter procedure (conflict test for anxiolytic properties)
Format: in vivo
Settings: Rattus norvegicus, 0.5 h; dose 50 mg/kg po, 30 min before testing; percentage increase in square root of total lever presses in the FR5 'conflict' session; read-out: increase in responding in the 'conflict' session
Procedure: Potential anxiolytic properties have been evaluated using the Geller-Seifter procedure based on that originally described by Geller and Seifter, (1960) Psychopharmacologia, 1, 482-492.
Rats are trained on a variable interval 30 sec schedule (VI30) to press a lever in order to obtain food reward. The 5 min sessions of the V130 schedule alternate with 2-5 min of a schedule (FR5) in which every 5th lever press is followed by presentation of a food pellet paired with a 0.5 sec mild footshock. The total study lasts approximately 30 mins. Rats typically respond with high rates of lever pressing under the VI30 schedule and low response rats under the Fx5 'conflict' session. Anxiolytic drugs increase the suppressed response rates of rats in 'conflict' session.
Drugs are administered intraperitoneally or orally to groups of 3-8 rats 30 min before testing.
The results are expressed as the percentage increase in square root of the total number of lever presses in the FR5 'conflict' session. Square root transformation is necessary to normalise the data for statistical analysis using parametric methods.

Compound	change in vivo at 50 mg/kg [%]
COC(=O)c1c(C)nc2[nH]c3ccccc3c2c1N [Example 1, 4-Amino-2-methyl-9H-pyrido[2,3-b]indole-3-carboxylic acid, methyl ester]	143
CNc1c(C(=O)OC)c(C)nc2c1c1ccccc1n2C [Example 8, 2,9-Dimethyl-4-methylamino-9H-pyrido[2,3-b]indole-3-carboxylic acid, methyl ester]	112
C=CCOC(=O)c1c(C)nc2c(c1N)c1ccccc1n2C [Example 11, 4-Amino-2,9-dimethyl-9H-pyrido[2,3-b]indole-3-carboxylic acid, 2-propenyl ester]	138
C#CCOC(=O)c1c(C)nc2c(c1N)c1ccccc1n2C [Example 14, 4-Amino-2,9-dimethyl-9H-pyrido[2,3-b]indole-3-carboxy-lie acid, 2-propynyl ester]	102
CCCOC(=O)c1c(C)nc2c(c1N)c1ccccc1n2C [Example 24, 4-Amino-2,9-dimethyl-9H-pyrido[2,3,b]indole-3-carboxylic acid, n-propyl ester]	78
